This note sets out measurements from patent US6399773B1, “Compounds derived from an amine nucleus that are inhibitors of IMPDH enzyme” (Bristol-Myers Squibb Co., priority 1998, dated 2002).

Take `COc1cc(Nc2ncc(-c3ccccc3N(C)C(=O)CN3CCOCC3)o2)ccc1-c1cnco1` [Example 79, N-[2-[2-[[3-Methoxy-4-(5-oxazolyl)phenyl]amino]-5-oxazolyl]phenyl]-N-methyl-4-morpholineacetamide]: the melting point (in general, the temperature of the solid-liquid transition) was in the range of 179 to 181 °C.
For the compound `COc1cc(Nc2nsc(-c3ccccc3)n2)ccc1-c1cnco1` [Example 30, N-[3-Methoxy-4-(5-oxazolyl)phenyl]-5-phenyl-1,2,4-thiadiazol-3-amine], the melting point was in the range of 260 to 261 °C.
`COc1cc(Nc2cc(-c3ccccc3)on2)ccc1-c1cnco1` [Example 31, N-[3-Methoxy-4-(5-oxazolyl)phenyl]-5-phenyl-3-isoxazolamine] registered a melting point of 173 to 175 °C.
As to `COc1cc(Nc2ncc(-c3ccccc3C(=O)O)o2)ccc1-c1cnco1` [Example 80, 2-[2-[[3-Methoxy-4-(5-oxazolyl)phenyl]amino]-5-oxazolyl]benzoic acid], the melting point is 271 to 274 °C.
Then `COc1cc(Nc2cccc(-c3ccccc3)c2)ccc1-c1cnco1` [Example 29, N-[3-Methoxy-4-(5-oxazolyl)phenyl][1,1′-biphenyl]-3-amine], with 171 to 173 °C.
Then `COc1cc(Nc2ncc(-c3ccccc3)o2)ccc1-c1cnco1` [Example 34, N-[3-Methoxy-4-(5-oxazolyl)phenyl]-5-phenyl-2-oxazolamine], with 212 to 215 °C.
